According to patent US20240109865A1, “INDAZOLE COMPOUNDS AS KINASE INHIBITORS” (TYRA BIOSCIENCES, INC., priority 2020, published 2024):

Tests used:
Test in all cases: Kinase assay, binding constants (Kd), kinase-tagged T7 phage, qPCR
[1] = molecular target: FGFR1 (Homo sapiens (Human), UniProt P11362)
Summary of the method: (§1)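 Competition binding: T7 phage-tagged kinase + biotin-ligand beads + compound (11 pts, 3-fold, 0.9% DMSO). Elution 30 min RT with free ligand; qPCR quantitation. Kd via Hill fit, slope −1.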

[2] = molecular target: FGFR3 (Homo sapiens (Human), UniProt P22607)
Chain of FGFR3 (P22607 23-806): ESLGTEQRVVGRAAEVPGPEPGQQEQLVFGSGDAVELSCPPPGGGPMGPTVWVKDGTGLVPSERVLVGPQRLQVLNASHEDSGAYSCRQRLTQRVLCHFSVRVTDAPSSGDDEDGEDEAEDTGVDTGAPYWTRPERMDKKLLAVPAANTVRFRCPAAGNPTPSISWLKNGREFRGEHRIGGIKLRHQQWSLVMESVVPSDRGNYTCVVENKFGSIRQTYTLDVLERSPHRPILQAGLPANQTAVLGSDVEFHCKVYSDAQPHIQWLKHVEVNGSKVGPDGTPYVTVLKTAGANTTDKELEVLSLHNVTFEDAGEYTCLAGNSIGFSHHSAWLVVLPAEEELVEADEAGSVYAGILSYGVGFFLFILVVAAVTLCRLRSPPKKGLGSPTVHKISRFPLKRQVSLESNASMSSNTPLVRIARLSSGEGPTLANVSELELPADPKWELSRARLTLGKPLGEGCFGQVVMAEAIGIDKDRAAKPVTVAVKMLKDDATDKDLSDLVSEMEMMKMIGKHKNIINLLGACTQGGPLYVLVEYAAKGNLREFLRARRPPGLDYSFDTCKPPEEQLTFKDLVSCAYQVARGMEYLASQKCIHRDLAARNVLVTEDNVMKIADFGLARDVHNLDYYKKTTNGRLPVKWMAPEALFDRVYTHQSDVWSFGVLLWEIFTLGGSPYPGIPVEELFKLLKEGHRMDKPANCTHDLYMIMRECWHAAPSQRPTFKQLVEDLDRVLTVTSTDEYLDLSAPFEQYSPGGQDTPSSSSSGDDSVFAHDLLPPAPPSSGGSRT
Summary of the method: as §1

[3] = molecular target: FGFR2 (Homo sapiens (Human), UniProt P21802)
Chain of FGFR2 (P21802 22-821): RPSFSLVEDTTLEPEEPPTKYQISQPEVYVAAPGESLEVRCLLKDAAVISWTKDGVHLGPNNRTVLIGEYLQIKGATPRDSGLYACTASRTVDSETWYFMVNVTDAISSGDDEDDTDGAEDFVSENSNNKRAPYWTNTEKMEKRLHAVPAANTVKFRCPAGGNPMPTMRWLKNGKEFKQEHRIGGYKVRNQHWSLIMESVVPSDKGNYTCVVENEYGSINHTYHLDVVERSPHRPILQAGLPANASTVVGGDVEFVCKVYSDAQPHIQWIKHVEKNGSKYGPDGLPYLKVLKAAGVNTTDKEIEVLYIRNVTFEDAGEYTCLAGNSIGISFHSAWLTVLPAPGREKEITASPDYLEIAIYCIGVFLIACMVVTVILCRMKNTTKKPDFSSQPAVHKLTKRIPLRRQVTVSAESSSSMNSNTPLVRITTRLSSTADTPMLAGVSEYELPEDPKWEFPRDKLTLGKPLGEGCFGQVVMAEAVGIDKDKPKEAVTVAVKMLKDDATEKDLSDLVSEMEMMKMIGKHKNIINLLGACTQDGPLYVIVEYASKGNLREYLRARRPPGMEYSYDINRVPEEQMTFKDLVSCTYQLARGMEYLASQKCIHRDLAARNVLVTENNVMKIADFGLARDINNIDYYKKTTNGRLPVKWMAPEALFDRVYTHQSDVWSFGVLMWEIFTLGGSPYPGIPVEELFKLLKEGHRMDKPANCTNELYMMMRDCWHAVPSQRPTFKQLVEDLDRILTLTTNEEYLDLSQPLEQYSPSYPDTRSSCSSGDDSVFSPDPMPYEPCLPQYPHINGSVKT
Summary of the method: as §1

[4] = molecular target: FGFR3 (V555M) (Homo sapiens (Human), UniProt P22607, V555M); conditions: V555M mutant
Chain of FGFR3 (V555M) (P22607 23-806 V555M): as the sequence (P22607 23-806) above, with V533M counted along it
Summary of the method: as §1

[5] = molecular target: FGFR4 (Homo sapiens (Human), UniProt P22455)
Chain of FGFR4 (P22455 22-802): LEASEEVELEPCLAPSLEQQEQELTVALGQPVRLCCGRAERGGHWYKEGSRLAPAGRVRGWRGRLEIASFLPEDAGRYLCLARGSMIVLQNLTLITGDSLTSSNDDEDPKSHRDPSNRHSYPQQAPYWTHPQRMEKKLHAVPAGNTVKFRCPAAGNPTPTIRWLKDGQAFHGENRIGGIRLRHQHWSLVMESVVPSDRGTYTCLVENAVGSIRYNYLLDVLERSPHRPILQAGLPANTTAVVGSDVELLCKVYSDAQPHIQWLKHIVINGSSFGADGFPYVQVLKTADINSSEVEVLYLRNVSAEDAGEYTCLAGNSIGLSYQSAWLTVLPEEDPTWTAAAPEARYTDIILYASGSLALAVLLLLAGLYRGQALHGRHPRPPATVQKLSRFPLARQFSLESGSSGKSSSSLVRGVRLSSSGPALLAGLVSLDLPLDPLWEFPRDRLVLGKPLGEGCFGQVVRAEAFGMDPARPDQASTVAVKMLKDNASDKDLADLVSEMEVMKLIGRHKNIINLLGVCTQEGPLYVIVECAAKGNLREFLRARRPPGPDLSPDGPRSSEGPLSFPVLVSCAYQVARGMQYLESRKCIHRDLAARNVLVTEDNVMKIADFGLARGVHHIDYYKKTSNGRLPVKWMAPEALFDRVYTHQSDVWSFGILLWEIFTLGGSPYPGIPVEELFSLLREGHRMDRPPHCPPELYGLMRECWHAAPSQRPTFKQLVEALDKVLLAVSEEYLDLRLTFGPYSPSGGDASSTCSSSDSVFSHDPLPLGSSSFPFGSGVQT
Summary of the method: as §1

Chain of FGFR1 (P11362 22-822): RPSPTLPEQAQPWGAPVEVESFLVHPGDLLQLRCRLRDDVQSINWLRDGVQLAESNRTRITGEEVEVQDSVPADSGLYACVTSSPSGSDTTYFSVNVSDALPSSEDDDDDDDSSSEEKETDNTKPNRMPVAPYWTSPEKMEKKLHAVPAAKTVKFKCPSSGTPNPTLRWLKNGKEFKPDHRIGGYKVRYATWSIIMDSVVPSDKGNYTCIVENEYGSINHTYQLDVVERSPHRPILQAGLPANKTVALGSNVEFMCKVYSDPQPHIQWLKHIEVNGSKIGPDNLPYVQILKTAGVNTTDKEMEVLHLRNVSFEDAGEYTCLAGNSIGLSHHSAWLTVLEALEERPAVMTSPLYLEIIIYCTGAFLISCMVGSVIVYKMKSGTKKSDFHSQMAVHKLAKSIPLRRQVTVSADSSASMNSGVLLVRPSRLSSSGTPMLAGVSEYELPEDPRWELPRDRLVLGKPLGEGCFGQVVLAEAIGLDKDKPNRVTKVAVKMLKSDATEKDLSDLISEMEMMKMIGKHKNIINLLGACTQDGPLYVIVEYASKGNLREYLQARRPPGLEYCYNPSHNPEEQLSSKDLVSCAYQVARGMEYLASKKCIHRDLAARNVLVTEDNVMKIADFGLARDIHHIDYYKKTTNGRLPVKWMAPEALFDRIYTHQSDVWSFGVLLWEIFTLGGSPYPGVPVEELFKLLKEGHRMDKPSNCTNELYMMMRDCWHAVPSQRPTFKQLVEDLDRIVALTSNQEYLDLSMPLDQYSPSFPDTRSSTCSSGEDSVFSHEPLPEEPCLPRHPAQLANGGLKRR

Kd [1] [nM] | Kd [2] [nM] | Kd [3] [nM] | Kd [4] [nM] | Kd [5] [nM] | SMILES
20 to 100 | 1 to 20 | 1 to 20 | 1 to 20 | 20 to 100 | C[C@@H](Oc1ccc2[nH]nc(-c3ccc(N4CC5(CCOC5)C4)nc3)c2c1)c1c(Cl)cnc(F)c1Cl [Example 204, (R)-2-(5-(5-(1-(3,5-dichloro-2-fluoropyridin-4-yl)ethoxy)-1H-indazol-3-yl)pyridin-2-yl)-6-oxa-2-azaspiro[3.4]octane]
1 to 20 | 1 to 20 | 1 to 20 | 1 to 20 | 1 to 20 | Cc1cnnc(C)c1[C@@H](C)Oc1ccc2[nH]nc(-c3ccc(N4CC5(COC5)C4)nc3)c2c1 [Example 205, 6-[5-[5-[(1R)-1-(3,5-dimethylpyridazin-4-yl)ethoxy]-1H-indazol-3-yl]-2-pyridyl]-2-oxa-6-azaspiro[3.3]heptane]
20 to 100 | 1 to 20 | 1 to 20 | 1 to 20 | 1 to 20 | COc1cc2[nH]nc(-c3cnc(N4CC5(COC5)C4)c(C)c3)c2cc1O[C@H](C)c1c(C)cnnc1C [Example 219, (R)-6-(5-(5-(1-(3,5-dimethylpyridazin-4-yl)ethoxy)-6-methoxy-1H-indazol-3-yl)-3-methylpyridin-2-yl)-2-oxa-6-azaspiro[3.3]heptane]
20 to 100 | 1 to 20 | 20 to 100 | 1 to 20 | 1 to 20 | COc1cc2[nH]nc(-c3ccc(N4CCCC4)nc3)c2cc1O[C@H](C)c1c(Cl)cnc(C)c1Cl [Example 220, 5-[(1R)-1-(3,5-dichloro-2-methyl-4-pyridyl)ethoxy]-6-methoxy-3-(6-pyrrolidin-1-yl-3-pyridyl)-1H-indazole]
20 to 100 | 1 to 20 | 20 to 100 | 1 to 20 | 1 to 20 | Cc1ncc(Cl)c([C@@H](C)Oc2ccc3[nH]nc(-c4ccc(N5CC(C)(O)C5)nc4)c3c2)c1Cl [Example 222, 1-[5-[5-[(1R)-1-(3,5-dichloro-2-methyl-4-pyridyl)ethoxy]-1H-indazol-3-yl]-2-pyridyl]-3-methyl-azetidin-3-ol]
1 to 20 | 1 to 20 | 20 to 100 | 1 to 20 | 1 to 20 | C[C@@H](Oc1ccc2[nH]nc(-c3ccc(N4CC5(CN(CC(F)(F)F)C5)C4)nc3)c2c1)c1c(Cl)cncc1Cl [Example 224, (R)-5-(1-(3,5-dichloropyridin-4-yl)ethoxy)-3-(6-(6-(2,2,2-trifluoroethyl)-2,6-diazaspiro[3.3]heptan-2-yl)pyridin-3-yl)-1H-indazole]
20 to 100 | 1 to 20 | 1 to 20 | 1 to 20 | 1 to 20 | Cc1ncc(Cl)c([C@@H](C)Oc2ccc3[nH]nc(-c4ccc(N5CCN6C(=O)CCC6C5)nc4)c3c2)c1Cl (stereo partly drawn) [Example 225, 2-[5-[5-[(1R)-1-(3,5-dichloro-2-methyl-4-pyridyl)ethoxy]-1H-indazol-3-yl]-2-pyridyl]-1,3,4,7,8,8a-hexahydropyrrolo[1,2-a]pyrazin-6-one]
20 to 100 | 1 to 20 | 1 to 20 | 1 to 20 | 1 to 20 | Cc1ncc(Cl)c([C@@H](C)Oc2ccc3[nH]nc(-c4ccc(N5CC6(CC(O)C6)C5)nc4)c3c2)c1Cl [Example 227, 2-[5-[5-[(1R)-1-(3,5-dichloro-2-methyl-4-pyridyl)ethoxy]-1H-indazol-3-yl]-2-pyridyl]-2-azaspiro[3.3]heptan-6-ol]
> 300 | 20 to 100 | 100 to 300 | 20 to 100 | > 300 | C[C@@H](Oc1ccc2[nH]nc(-c3ccc(N4CC5(COC5)C4)nc3)c2c1)c1c(Cl)cnnc1Cl [Example 229, (R)-6-(5-(5-(1-(3,5-dichloropyridazin-4-yl)ethoxy)-1H-indazol-3-yl)pyridin-2-yl)-2-oxa-6-azaspiro[3.3]heptane]

The remaining lines, values behind:

SMILES | Kd [1] [nM] | Kd [2] [nM] | Kd [3] [nM] | Kd [4] [nM] | Kd [5] [nM]
Cc1cnnc(C)c1[C@@H](C)Oc1ccc2[nH]nc(-c3ccc(N4CC5(CCOC5)C4)nc3)c2c1 [Example 206, (R)-2-(5-(5-(1-(3,5-dimethylpyridazin-4-yl)ethoxy)-1H-indazol-3-yl)pyridin-2-yl)-6-oxa-2-azaspiro[3.4]octane] | 1 to 20 | 1 to 20 | 1 to 20 | 1 to 20 | 1 to 20
COc1cc2[nH]nc(-c3ccc(N4CC5(C4)CN(S(C)(=O)=O)C5)nc3)c2cc1O[C@H](C)c1c(Cl)cnc(C)c1Cl [Example 207, 5-[(1R)-1-(3,5-dichloro-2-methyl-4-pyridyl)ethoxy]-6-methoxy-3-[6-(2-methylsulfonyl-2,6-diazaspiro[3.3]heptan-6-yl)-3-pyridyl]-1H-indazole] | 1 to 20 | 1 to 20 | 1 to 20 | 1 to 20 | 1 to 20
COc1cc2[nH]nc(-c3ccc(N4CC(O)C4)nc3)c2cc1O[C@H](C)c1c(Cl)cnc(C)c1Cl [Example 208, 1-[5-[5-[(1R)-1-(3,5-dichloro-2-methyl-4-pyridyl)ethoxy]-6-methoxy-1H-indazol-3-yl]-2-pyridyl]azetidin-3-ol] | 20 to 100 | 1 to 20 | 1 to 20 | 1 to 20 | 1 to 20
COC1(C)CN(c2ccc(-c3n[nH]c4ccc(O[C@H](C)c5c(Cl)cnc(C)c5Cl)cc34)cn2)C1 [Example 210, 5-[(1R)-1-(3,5-dichloro-2-methyl-4-pyridyl)ethoxy]-3-[6-(3-methoxy-3-methyl-azetidin-1-yl)-3-pyridyl]-1H-indazole] | 20 to 100 | 1 to 20 | 1 to 20 | 1 to 20 | 1 to 20
COc1cc2[nH]nc(-c3ccc(N4CC5(COC5)C4)nc3)c2cc1O[C@H](C)c1c(Cl)cnc(C)c1Cl [Example 211, 6-[5-[5-[(1R)-1-(3,5-dichloro-2-methyl-4-pyridyl)ethoxy]-6-methoxy-1H-indazol-3-yl]-2-pyridyl]-2-oxa-6-azaspiro[3.3]heptane] | 1 to 20 | 1 to 20 | 1 to 20 | 1 to 20 | 1 to 20
Cc1ncc(Cl)c([C@@H](C)Oc2ccc3[nH]nc(-c4ccc(N5CC6(CCC6)C5)nc4)c3c2)c1Cl [Example 212, 3-[6-(2-azaspiro[3.3]-heptan-2-yl)-3-pyridyl]-5-[(1R)-1-(3,5-dichloro-2-methyl-4-pyridyl)ethoxy]-1H-indazole] | > 300 | 20 to 100 | 100 to 300 | 1 to 20 | 100 to 300
COc1cc2[nH]nc(-c3cnc(N4CC5CC(C4)N5CC(C)(C)O)c(C)c3)c2cc1O[C@H](C)c1c(C)cnnc1C [Example 214, 1-(3-(5-(5-((R)-1-(3,5-dimethylpyridazin-4-yl)ethoxy)-6-methoxy-1H-indazol-3-yl)-3-methylpyridin-2-yl)-3,6-diazabicyclo[3.1.1]heptan-6-yl)-2-methylpropan-2-ol] | 1 to 20 | 1 to 20 | 1 to 20 | 1 to 20 | 1 to 20
Cc1ncc(Cl)c([C@@H](C)Oc2ccc3[nH]nc(-c4ccc(N5CC6(CCOC6)C5)nc4)c3c2)c1Cl [Example 216, 2-[5-[5-[(1R)-1-(3,5-dichloro-2-methyl-4-pyridyl)ethoxy]-1H-indazol-3-yl]-2-pyridyl]-6-oxa-2-azaspiro[3.4]octane] | 20 to 100 | 1 to 20 | 1 to 20 | 1 to 20 | 1 to 20
Cc1cc(-c2n[nH]c3ccc(O[C@H](C)c4c(Cl)cnc(C)c4Cl)cc23)cnc1N1CC2(CCOC2)C1 [Example 217, 2-[5-[5-[(1R)-1-(3,5-dichloro-2-methyl-4-pyridyl)ethoxy]-1H-indazol-3-yl]-3-methyl-2-pyridyl]-6-oxa-2-azaspiro[3.4]octane] | 100 to 300 | 1 to 20 | 20 to 100 | 1 to 20 | 1 to 20
COc1cc2[nH]nc(-c3cnc(N4CC5(COC5)C4)c(C#N)c3)c2cc1O[C@H](C)c1c(C)cnnc1C [Example 218, (R)-5-(5-(1-(3,5-dimethylpyridazin-4-yl)ethoxy)-6-methoxy-1H-indazol-3-yl)-2-(2-oxa-6-azaspiro[3.3]heptan-6-yl)nicotinonitrile] | 20 to 100 | 20 to 100 | 20 to 100 | 1 to 20 | 1 to 20
Cc1ncc(Cl)c([C@@H](C)Oc2ccc3[nH]nc(-c4ccc(N5CC6(CCCO6)C5)nc4)c3c2)c1Cl [Example 226, 2-[5-[5-[(1R)-1-(3,5-dichloro-2-methyl-4-pyridyl)ethoxy]-1H-indazol-3-yl]-2-pyridyl]-5-oxa-2-azaspiro[3.4]octane] | 20 to 100 | 1 to 20 | 20 to 100 | 1 to 20 | 20 to 100
COc1cc2[nH]nc(-c3ccc(N4CCN5C(=O)NCC5C4)nc3)c2cc1O[C@H](C)c1c(C)cnnc1C (stereo partly drawn) [Example 228, 7-(5-(5-((R)-1-(3,5-dimethylpyridazin-4-yl)ethoxy)-6-methoxy-1H-indazol-3-yl)pyridin-2-yl)hexahydroimidazo[1,5-a]pyrazin-3(2H)-one] | 1 to 20 | 1 to 20 | 1 to 20 | 1 to 20 | 1 to 20
C[C@@H](Oc1ccc2[nH]nc(-c3ccc(N4CC5(CN(CC(F)F)C5)C4)nc3)c2c1)c1c(Cl)cncc1Cl [Example 230, (R)-5-(1-(3,5-dichloropyridin-4-yl)ethoxy)-3-(6-(6-(2,2-difluoroethyl)-2,6-diazaspiro[3.3]heptan-2-yl)pyridin-3-yl)-1H-indazole] | 1 to 20 | 1 to 20 | 1 to 20 | 1 to 20 | 1 to 20
